The record followed here is PubChem BioAssay (NCI).

Values after ≈ are worked out from the molar mass of the structure shown.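 Five concentrations, 48 hours, 96-well plates. Abbreviation: GI50, concentration required for 50% inhibition of growth. At the TGI there is no net growth.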

Test systems include HOP-92 NSCLC; MALME-3M melanoma; OVCAR-3 ovarian; SF-268 CNS; SK-MEL-2 melanoma; SK-MEL-5 melanoma; UO-31 renal; A498 renal; HT29 colon; IGROV1 ovarian; K-562 leukemia; SN12C renal; RXF 393 renal.
Assay in all cases: DTP human tumour cell line panel, 48 h

For `Cc1nc2nc(C)n(CCN3CCOCC3)c(=O)c2c(-c2cccc([N+](=O)[O-])c2)c1C(=O)CCCCCCCCCCN1CCC(c2ccccc2)(c2ccccc2)CC1`, the GI50 (as a rule, the concentration at which growth is held to half of that of the control) in the experiment with HOP-92 NSCLC was 0.0976 µg/mL (≈ 0.12 µM); in the experiment on MALME-3M melanoma, 2.24 µg/mL (≈ 2.75 µM); in the experiment with OVCAR-3 ovarian, 2.21 µg/mL (≈ 2.72 µM); with SF-268 CNS, 2.26 µg/mL (≈ 2.78 µM); in the experiment on SK-MEL-2 melanoma, 2.55 µg/mL (≈ 3.14 µM); in the experiment with SK-MEL-5 melanoma, 2.3 µg/mL (≈ 2.83 µM). The GI50 in the experiment with UO-31 renal was 1.71 µg/mL (≈ 2.1 µM). Further, the TGI (commonly the concentration giving total growth inhibition) amounted to 1.25 µg/mL in the experiment on HOP-92 NSCLC; 4.22 µg/mL in the experiment on MALME-3M melanoma; 4.19 µg/mL with OVCAR-3 ovarian; 4.26 µg/mL in the experiment with SF-268 CNS; 4.76 µg/mL with SK-MEL-2 melanoma; 4.3 µg/mL in the experiment with SK-MEL-5 melanoma. This molecule also gave a TGI in the experiment with UO-31 renal of 3.52 µg/mL.
`Cc1cc(=O)oc2c1cc1ccc3cccc4ccc2c1c34`: the TGI with A498 renal, in the experiment with HOP-92 NSCLC, in the experiment on HT29 colon, with IGROV1 ovarian, with K-562 leukemia and in the experiment with MALME-3M melanoma was above 100 µM throughout. Further, the TGI with OVCAR-3 ovarian, with SF-268 CNS, with SK-MEL-2 melanoma, in the experiment on SK-MEL-5 melanoma, with SN12C renal and in the experiment on UO-31 renal was above 100 µM in each case.
With `ICC1CCCO1` (stereo not given), the TGI in the experiment on A498 renal, in the experiment with HOP-92 NSCLC, in the experiment on HT29 colon, in the experiment with IGROV1 ovarian, in the experiment on MALME-3M melanoma and with RXF 393 renal was above 100 µM throughout. In addition, the TGI in the experiment with SF-268 CNS, in the experiment on SK-MEL-2 melanoma, in the experiment on SK-MEL-5 melanoma and with SN12C renal was above 100 µM each time.
For `Cc1cc(O)c2c(c1)C(=O)c1c(c(O)cc(O)c1-c1c(O)cc(O)c3c1C(=O)c1cc(C)cc(O)c1C3=O)C2=O`, the TGI with A498 renal was 40.4 µM; with HOP-92 NSCLC, 34.4 µM; in the experiment on HT29 colon it was 45 µM; with IGROV1 ovarian, 52.6 µM; with K-562 leukemia, 55.6 µM; in the experiment with MALME-3M melanoma it was 65.2 µM. The TGI was determined as 21.6 µM with OVCAR-3 ovarian; 76.5 µM with RXF 393 renal; 75.4 µM in the experiment with SF-268 CNS; 40.7 µM in the experiment with SK-MEL-2 melanoma; 30.6 µM with SK-MEL-5 melanoma; 41.2 µM in the experiment on SN12C renal. Moreover, in the experiment on UO-31 renal, the TGI is 15.8 µM.
For the molecule `CC1(C)OCC(CO)(CO)CO1`, the TGI in the experiment with A498 renal, with HOP-92 NSCLC, with HT29 colon, in the experiment on K-562 leukemia, in the experiment with OVCAR-3 ovarian and in the experiment on RXF 393 renal was above 100 µM each time. Further, the TGI in the experiment with SF-268 CNS, in the experiment on SK-MEL-5 melanoma, in the experiment with SN12C renal and with UO-31 renal was above 100 µM in each case.
With `CCOP(=O)(C/C=C/Cn1ncc(=O)[nH]c1=O)OCC`, the TGI in the experiment on A498 renal, in the experiment with HOP-92 NSCLC, in the experiment on HT29 colon, in the experiment with IGROV1 ovarian, in the experiment with K-562 leukemia and in the experiment with MALME-3M melanoma was above 100 µM each time. The TGI in the experiment on OVCAR-3 ovarian, in the experiment on RXF 393 renal, in the experiment with SF-268 CNS, with SK-MEL-2 melanoma, with SK-MEL-5 melanoma and in the experiment with SN12C renal was above 100 µM each time. This molecule came in with a TGI in the experiment on UO-31 renal above 100 µM.
For `c1ccc(C2=NN2c2ccccc2)cc1`, the TGI in the experiment on A498 renal, with HOP-92 NSCLC, with HT29 colon, in the experiment with IGROV1 ovarian, in the experiment with K-562 leukemia and with MALME-3M melanoma was above 100 µM in each case. The TGI in the experiment with OVCAR-3 ovarian, in the experiment with RXF 393 renal, in the experiment with SF-268 CNS, with SK-MEL-2 melanoma, in the experiment on SK-MEL-5 melanoma and in the experiment on SN12C renal was above 100 µM throughout. This molecule also yielded a TGI with UO-31 renal above 100 µM.
For `O=C(O)CCC(NC(=O)c1ccc(Nc2cnc3cc(C(F)(F)F)ccc3n2)cc1)C(=O)O` (stereo not given), the TGI with A498 renal, in the experiment on HOP-92 NSCLC, with HT29 colon, in the experiment with IGROV1 ovarian, in the experiment with K-562 leukemia and in the experiment on MALME-3M melanoma was above 100 µM throughout. Also, the TGI in the experiment on OVCAR-3 ovarian, with RXF 393 renal, with SF-268 CNS, in the experiment with SK-MEL-2 melanoma, in the experiment with SK-MEL-5 melanoma and in the experiment with SN12C renal was above 100 µM in each case. Besides, the TGI in the experiment on UO-31 renal is above 100 µM.
For `CN1CCC2(c3ccccc3)CC(=O)/C(=C/c3ccc(Cl)c(Cl)c3)C1C2` (stereo not given), the TGI worked out at 12.8 µM in the experiment on A498 renal; 7.33 µM with HOP-92 NSCLC; 4.12 µM in the experiment on HT29 colon; 4.19 µM in the experiment with IGROV1 ovarian; 7.28 µM in the experiment on K-562 leukemia; 24.4 µM in the experiment on MALME-3M melanoma. The TGI in the experiment with OVCAR-3 ovarian was 9.59 µM; in the experiment with RXF 393 renal, 7.07 µM; in the experiment on SF-268 CNS it was 3.73 µM; in the experiment on SK-MEL-2 melanoma, 9.87 µM; with SK-MEL-5 melanoma, 8.37 µM; in the experiment on SN12C renal it was 3.72 µM. In addition, in the experiment with UO-31 renal, the TGI came out at 3.82 µM.
Turning to `C=C1CC(OC)(C(OC)C(=O)N[C@H]2OCO[C@H]3C2O[C@H](C[C@@H](COC)OC)C(C)(C)C3OC)O[C@H](C)[C@@H]1C` (stereo not given in full), the TGI in the experiment on A498 renal came out at 2.58 µM; in the experiment on HOP-92 NSCLC, 4.76 µM; in the experiment on HT29 colon it was 5.49 µM; with IGROV1 ovarian, 12.3 µM; in the experiment with K-562 leukemia it was 3.38 µM; in the experiment on OVCAR-3 ovarian it was 2.96 µM. Besides, the TGI with RXF 393 renal was 5.38 µM; in the experiment with SK-MEL-2 melanoma it was 14.9 µM; in the experiment with SK-MEL-5 melanoma, 1.3 µM; with SN12C renal, above 47 µM; in the experiment on UO-31 renal it was 5.71 µM.
Turning to `O=Cc1cn(CCCCCCCCn2cc(C=O)c3ccccc32)c2ccccc12`, the TGI with A498 renal is 3.23 µM; in the experiment with HT29 colon, above 10 µM; with IGROV1 ovarian, above 10 µM; with K-562 leukemia, above 10 µM; in the experiment on MALME-3M melanoma, above 10 µM; in the experiment on OVCAR-3 ovarian it was above 10 µM. Further, the TGI in the experiment on RXF 393 renal, in the experiment on SF-268 CNS, in the experiment on SK-MEL-2 melanoma, with SK-MEL-5 melanoma, with SN12C renal and in the experiment on UO-31 renal was above 10 µM throughout.
With `O=C(NN1C(=O)CS(=O)(=O)C1c1ccc(Cl)c(Cl)c1)c1ccncc1` (stereo not given), the TGI in the experiment with A498 renal, with HOP-92 NSCLC, in the experiment with HT29 colon, in the experiment on IGROV1 ovarian, in the experiment on K-562 leukemia and in the experiment with MALME-3M melanoma was above 100 µM throughout. Further, the TGI in the experiment with OVCAR-3 ovarian, with RXF 393 renal, in the experiment on SF-268 CNS, in the experiment on SK-MEL-2 melanoma, in the experiment with SK-MEL-5 melanoma and with SN12C renal was above 100 µM in each case. Moreover, the TGI with UO-31 renal was above 100 µM.
On to `Cc1[nH]c(C)c(CN(C)C)c1CN(C)C`, for which the TGI with A498 renal, with HOP-92 NSCLC, with HT29 colon, in the experiment with IGROV1 ovarian, in the experiment with K-562 leukemia and with MALME-3M melanoma was above 100 µM in each case. The TGI in the experiment with OVCAR-3 ovarian, with RXF 393 renal, with SF-268 CNS, in the experiment on SK-MEL-2 melanoma, in the experiment on SK-MEL-5 melanoma and with SN12C renal was above 100 µM throughout. In the experiment on UO-31 renal, this molecule yielded a concentration for total growth inhibition (TGI) above 100 µM.
For the molecule `O=C=C=P(c1ccccc1)(c1ccccc1)c1ccccc1`, the TGI is 85.1 µM in the experiment on HOP-92 NSCLC; above 100 µM in the experiment on IGROV1 ovarian; above 100 µM in the experiment with K-562 leukemia; above 100 µM with MALME-3M melanoma; above 100 µM in the experiment on RXF 393 renal; above 100 µM in the experiment with SF-268 CNS. In addition, the TGI with SK-MEL-2 melanoma is above 100 µM; with SK-MEL-5 melanoma, 46.2 µM; with SN12C renal, above 100 µM; in the experiment with UO-31 renal, above 100 µM.
